Source: patent US20090286816A1, “MODULATORS OF METABOLISM AND THE TREATMENT OF DISORDERS RELATED THERETO” (ARENA PHARMACEUTICALS, INC., priority 2006, published 2009)
Where two headings read alike, the source gives them in different places.

Tests used:
[1] = Rat dose-range PK study (dose escalation pharmacokinetics); format: in vivo; details: for AUC(0-t): male, SD, plasma, PO, read-out: AUC24 hr
Protocol: Male SD rats (250-300 g) were purchased from Charles River Laboratory; upon receipt, animals were placed under light-dark cycle (6:30 am-6:30 pm lights on). They were allowed ad libitum access to water and 4 pieces of food daily (Purina Meals Rodent Diet, Product Number 5001).
Compound formulations were prepared as following: The IV injection formulation was prepared in 20% hydroxypropyl-beta-cyclodextrin with concentration of 0.667 mg/mL. […] The dosing volume for IV injection was 3 mL/Kg and for PO administration was 10 mL/Kg. Four rats were used for each dose group. […]
All rats (4 rats per group, housed individually) were fasted overnight prior to in-life phase. On the next morning, rats were received an IV (via tail vein injection) injection or gavage dose of compound starting at 8 am (IV) and 9 am (PO). Next, each rat were orbital bled at 0.085, 0.25, 0.5, 1, 2, 4, 6, 8, and 24 hr (IV) or 0.5, 1, 2, 4, 6, 8, and 24 hr (PO) to collect blood samples for PK analysis.
The blood samples were collected via orbital bleeding into tubes containing EDTA, 0.25 mL blood each time. These samples were put on ice and within 2 hours plasma was prepared by centrifugation at 3,000 rpm for 30 min at 4° C. 100 μl of plasma were transferred into a 96-tube box for PK analysis.
Plasma samples were prepared as follows. Two hundred microliters of acetonitrile containing internal standard was added to 100 μL of plasma to precipitate proteins. Samples were centrifuged at 3000 g for 5 minutes and supernatant removed for analysis by LC-MS-MS. Calibration standards and quality control samples were prepared by adding a known volume of standard stock solution (50% methanol, 50% H2O) directly into blank plasma and treated identically to collected plasma samples. Calibration standards were typically prepared in the range of 2.0 ng/mL to 110 μg/mL with linear regression for quantitation. These sample preparation steps were automated using a liquid handling workstation (Tomtec Quadra 96) in the 96-well format. Reversed phase LC-MS-MS analysis was performed using either multiple reaction or selected ion monitoring for detection of characteristic ions for each drug candidate and the internal standard used was propranolol for positive ions or chloramphenicol for negative ions.
Results were calculated by noncompartmental analysis using WinNonlin Pro version 3.1 based on plasma concentration-time profiles for individual animals. Plasma levels were determined as described above and the oral and intravenous area under the concentration vs. time curve (AUC was calculated using the linear trapezoidal rule up to the last measurable concentration and was then extrapolated to infinity) were compared to determine the % bioavailability (% F) by the following formula: Dose (IV)*AUC (oral)/Dose (oral)*AUC (IV).
There may be significant variation within the individual animals and the analytical method and that variation was evidenced by the % CV. AUMC was the first statistical moment of the AUC and was used to calculate the mean residence time (MRT=AUMC/AUC), which was the average time the compound was in the animal. The Cmax represented the maximum concentration observed, the Tmax was the time to reach that maximum concentration and the T1/2 was the calculated terminal half-life of the compound in plasma using the slope of a log concentration vs time plot if there were sufficient elimination phase data points (at least three data points in the terminal phase excluding the Cmax). Systemic clearance (CL=Dose(IV)/AUC(IV)) was the volume of fluid (containing compound) from which compound was removed completely per unit time. Volume of distribution at steady state (Vss=CL*MRT) was the extent of distribution of a drug from the plasma to the tissues at steady state.

RUP3 receptor [2] = target: T1, RUP3 receptor (Homo sapiens, UniProt Q8TDV5); experiment: RUP3 dose response in melanophores (human receptor); format: cell-based
T1 construct: expressed in transfected cells; host or cells: melanophores (cultured per Potenza and Lerner 1992), electroporated
T1 sequence (Q8TDV5 1-335): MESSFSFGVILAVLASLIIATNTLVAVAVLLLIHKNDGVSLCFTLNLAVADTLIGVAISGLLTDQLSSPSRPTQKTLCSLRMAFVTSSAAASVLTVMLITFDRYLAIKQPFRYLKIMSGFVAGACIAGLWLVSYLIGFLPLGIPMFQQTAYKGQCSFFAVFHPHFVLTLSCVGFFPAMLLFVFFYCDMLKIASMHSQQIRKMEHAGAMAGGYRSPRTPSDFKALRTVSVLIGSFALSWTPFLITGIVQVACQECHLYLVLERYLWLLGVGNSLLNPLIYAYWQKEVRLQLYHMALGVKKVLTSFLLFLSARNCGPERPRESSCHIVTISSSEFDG
Protocol: (§1) Melanophores are maintained in culture as reported by Potenza, M. N. and Lerner, M. R., in Pigment Cell Research, Vol. 5, 372-378, 1992 and transfected with the RUP3 expression vector (pCMV) using electroporation. Following electroporation, the transfected cells are plated into 96 well plates for the assay. The cells are then allowed to grow for 48 hours in order to both recover from the electroporation procedure and attain maximal receptor expression levels. On the assay day, the growth medium on the cells is replaced with serum-free buffer containing 10 nM melatonin. The melatonin acts via an endogenous Gi-coupled GPCR in the melanophores to lower intracellular cAMP levels. In response to lowered cAMP levels, the melanophores translocate their pigment to the center of the cell. The net effect of this is a significant decrease in the absorbance reading of the cell monolayer in the well, measured at […]. After a 1-hour incubation in melatonin, the cells become completely pigment-aggregated. At this point a baseline absorbance reading is collected. Serial dilutions of test compounds are then added to the plate and compounds that stimulate RUP3 produce increases in intracellular cAMP levels. […] The measured increase in absorbance compared to the baseline reading allows one to quantitate the degree of receptor stimulation and plot a dose-response curve.

RUP3 receptor [3] = target: T2, RUP3 receptor (Canis lupus familiaris, UniProt A0A8I3QZL6); experiment: RUP3 dose response in melanophores (dog receptor); format: cell-based
T2 sequence (A0A8I3QZL6 1-335): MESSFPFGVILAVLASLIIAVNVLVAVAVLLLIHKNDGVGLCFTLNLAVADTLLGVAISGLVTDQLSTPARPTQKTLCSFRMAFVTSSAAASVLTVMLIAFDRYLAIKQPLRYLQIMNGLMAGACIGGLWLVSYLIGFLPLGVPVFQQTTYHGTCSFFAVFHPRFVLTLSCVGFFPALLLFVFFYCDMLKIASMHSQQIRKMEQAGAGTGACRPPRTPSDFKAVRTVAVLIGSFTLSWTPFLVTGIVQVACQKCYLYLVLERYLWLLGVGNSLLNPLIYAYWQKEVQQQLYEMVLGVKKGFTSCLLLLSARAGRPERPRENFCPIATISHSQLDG
Protocol: as §1

Male Sprague Dawley rats = experiment: Oral glucose tolerance test (oGTT) in rats; format: in vivo, rat; details: fasted male SD rats, p.o. 30 min before dextrose 3 g/kg, mean of six animals, dose of the group not stated (0.3, 3 or 30 mg/kg tested)
Protocol: Male Sprague Dawley rats (Harlan, San Diego, Calif.) weighing approximately 350-375 g were fasted for 16 hours and randomly grouped (n=6) to receive a RUP3 agonist at 0.3, 3 or 30 mg/kg. Compounds were delivered orally via a gavage needle (p.o., volume 2 mL/kg). At time 0, levels of blood glucose were assessed using a glucometer (Accu-Chek Advantage, Roche Diagnostics), and rats were administered either vehicle (20% hydroxypropyl-beta-cyclodextrin) or test compound. Thirty minutes after administration of test compound, levels of blood glucose were again assessed, and rats were administered dextrose orally at a dose of 3 g/kg. Blood glucose measurements were then taken 30 min, 60 min, and 120 min after this time.

RUP3 receptor [4] = target: T3, RUP3 receptor (Rattus norvegicus, UniProt Q7TQN8); experiment: RUP3 dose response in melanophores (rat receptor); format: cell-based
T3 construct: expressed in transfected cells; host or cells: melanophores (cultured per Potenza and Lerner 1992), electroporated
T3 sequence (Q7TQN8 1-468): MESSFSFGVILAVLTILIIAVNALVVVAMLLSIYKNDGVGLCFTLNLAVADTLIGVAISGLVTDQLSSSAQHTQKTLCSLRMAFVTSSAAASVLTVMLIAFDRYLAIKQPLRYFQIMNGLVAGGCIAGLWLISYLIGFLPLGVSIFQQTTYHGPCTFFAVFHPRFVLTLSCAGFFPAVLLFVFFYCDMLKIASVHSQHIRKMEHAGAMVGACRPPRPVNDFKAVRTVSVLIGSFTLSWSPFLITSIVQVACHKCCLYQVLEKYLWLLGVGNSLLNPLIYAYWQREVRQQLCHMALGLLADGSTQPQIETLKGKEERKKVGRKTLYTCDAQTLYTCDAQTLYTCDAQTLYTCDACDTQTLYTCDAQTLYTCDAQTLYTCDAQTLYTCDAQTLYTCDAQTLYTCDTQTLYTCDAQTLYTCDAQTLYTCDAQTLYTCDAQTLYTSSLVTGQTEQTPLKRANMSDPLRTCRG
Protocol: as §1

RUP3 receptor [5] = target: T4, RUP3 receptor (Mus musculus, UniProt Q7TQP3); experiment: RUP3 dose response in melanophores (mouse receptor); format: cell-based
T4 construct: expressed in transfected cells; host or cells: melanophores (cultured per Potenza and Lerner 1992), electroporated
T4 sequence (Q7TQP3 1-335): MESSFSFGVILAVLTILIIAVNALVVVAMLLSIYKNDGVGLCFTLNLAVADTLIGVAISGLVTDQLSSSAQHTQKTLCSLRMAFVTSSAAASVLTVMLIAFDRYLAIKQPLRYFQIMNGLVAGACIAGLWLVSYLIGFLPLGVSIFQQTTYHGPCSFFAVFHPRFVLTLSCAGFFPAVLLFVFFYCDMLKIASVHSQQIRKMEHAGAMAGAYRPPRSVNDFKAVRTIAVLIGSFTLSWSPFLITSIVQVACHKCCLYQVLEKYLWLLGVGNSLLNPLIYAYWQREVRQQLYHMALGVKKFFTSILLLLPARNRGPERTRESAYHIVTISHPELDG
Protocol: as §1

Row | AUC(0-t) ([1]; dose 30 mg) [ng·h/mL] | AUC(0-t) ([1]; dose 300 mg) [ng·h/mL] | AUC(0-t) ([1]; dose 3 mg) [ng·h/mL] | Structure (SMILES) | other results
1 | 29400 | 54700 | 5600 | COc1c(Nc2cnc(S(C)(=O)=O)cc2C)ncnc1OC1CCN(C(=O)OC(C)C)CC1 [Compound D, 4-[6-(6-Methanesulfonyl-4-methyl-pyridin-3-ylamino)-5-methoxypyrimidin-4-yloxy]-piperidine-1-carboxylic acid isopropyl ester] | –
2 | 55900 | 515000 | 4730 | Cc1nc(S(C)(=O)=O)ccc1Nc1ncnc(OC2CCN(C(=O)OC(C)C)CC2)c1C [Compound E, 4-[6-(6-methanesulfonyl-2-methyl-pyridin-3-ylamino)-5-methyl-pyrimidin-4-yloxy]-piperidine-1-carboxylic acid isopropyl ester] | –
3 | 6470 | 33800 | 1660 | COc1c(Nc2ccc(S(C)(=O)=O)nc2C)ncnc1OC1CCN(c2nc(C(C)C)no2)CC1 [Compound G, {6-[1-(3-Isopropyl-[1,2,4]oxadiazol-5-yl)-piperidin-4-yloxy]-5-methoxy-pyrimidin-4-yl}-(6-methanesulfonyl-2-methyl-pyridin-3-yl)-amine] | –
4 | 79800 | 286000 | 3590 | COc1c(Nc2ccc(-n3cncn3)nc2C)ncnc1OC1CCN(C(=O)OC(C)C)CC1 [Compound of Formula (I), 4-[5-Methoxy-6-(2-methyl-6-[1,2,4]triazol-1-yl-pyridin-3-ylamino)-pyrimidin-4-yloxy]-piperidine-1-carboxylic acid isopropyl ester] | EC50 (RUP3 receptor [2]): 2 nM; EC50 (RUP3 receptor [3]): 4 nM; mean percent inhibition of glucose excursion (Male Sprague Dawley rats): 60%; EC50 (RUP3 receptor [4]): 81 nM; dose escalation pharmacokinetics (AUC vs dose) ([1]; PO 3, 30, 300 mg/Kg, FIG. 1): essentially linear; EC50 (RUP3 receptor [5]): 57 nM

Further lines, the compound ahead of its results:

Row | Structure (SMILES) | AUC(0-t) ([1]; dose 30 mg) [ng·h/mL] | AUC(0-t) ([1]; dose 300 mg) [ng·h/mL] | AUC(0-t) ([1]; dose 3 mg) [ng·h/mL] | other results
5 | CC(C)OC(=O)N1CCC(Oc2ncnc3c2cnn3-c2ccc(S(C)(=O)=O)cc2F)CC1 [Compound A, 4-[1-(2-Fluoro-4-methanesulfonyl-phenyl)-1H-pyrazolo[3,4-d]pyrimidin-4-yloxy]-piperidine-1-carboxylic acid isopropyl ester] | 9930 | 97000 | – | AUC(0-t) ([1]; dose 10 mg): 2590 ng·h/mL; AUC(0-t) ([1]; dose 100 mg): 133000 ng·h/mL; AUC(0-t) ([1]; dose 1000 mg): 377000 ng·h/mL
6 | Cc1c(Nc2ccc(S(C)(=O)=O)cc2F)ncnc1OC1CCN(c2nc(C(C)C)no2)CC1 [Compound B, (2-Fluoro-4-methanesulfonyl-phenyl)-{6-[1-(3-isopropyl-[1,2,4]oxadiazol-5-yl)-piperidin-4-yloxy]-5-methyl-pyrimidin-4-yl}-amine] | 5990 | 11000 | 2120 | –
7 | COc1c(Nc2ccc(S(C)(=O)=O)nc2C)ncnc1OC1CCN(C(=O)OC(C)C)CC1 [Compound C, 4-[6-(6-Methanesulfonyl-2-methyl-pyridin-3-ylamino)-5-methoxy-pyrimidin-4-yloxy]-piperidine-1-carboxylic acid isopropyl ester] | 65900 | 419000 | 14900 | –
